Results taken from PubChem BioAssay AID248 (DTP/NCI, 2004).
Inconclusive results and toxic doses are left out. Cut-off read from the data, not from the text of the source: active = T/C of 150% or more; inactive = T/C below 125%.

System: L1210 leukemia ip in BDF1 mice, survival T/C
Assay: NCI In Vivo Anticancer Drug Screen. Data for tumor model L1210 Leukemia (intraperitoneal) in B6D2F1 (BDF1) mice
Details: endpoint: mean survival time, higher = longer survival
Outline: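 Tumor was transplanted into mice, which were then dosed with test compound or vehicle alone. Survival was recorded for each group, and the treated figure was expressed relative to the control figure.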

[1] = dose: 25.0 mg/kg/injection, schedule: Q01DX009 (ip), vehicle: saline with Tween-80
[2] = dose: 25.0 mg/kg/injection, schedule: Q04DX003 (ip), vehicle: saline with Tween-80
[3] = dose: 50.0 mg/kg/injection, schedule: Q01DX009 (ip), vehicle: saline with Tween-80
[4] = dose: 50.0 mg/kg/injection, schedule: Q04DX003 (ip), vehicle: saline with Tween-80
[5] = dose: 100.0 mg/kg/injection, schedule: Q04DX003 (ip), vehicle: saline with Tween-80
[6] = dose: 100.0 mg/kg/injection, schedule: Q01DX009 (ip), vehicle: Klucel (hydroxypropylcellulose) (HPC)
[7] = dose: 100.0 mg/kg/injection, schedule: Q04DX003 (ip), vehicle: Klucel (hydroxypropylcellulose) (HPC)
[8] = dose: 200.0 mg/kg/injection, schedule: Q01DX009 (ip), vehicle: Klucel (hydroxypropylcellulose) (HPC)
[9] = dose: 200.0 mg/kg/injection, schedule: Q04DX003 (ip), vehicle: Klucel (hydroxypropylcellulose) (HPC)
[10] = dose: 400.0 mg/kg/injection, schedule: Q04DX003 (ip), vehicle: Klucel (hydroxypropylcellulose) (HPC)
[11] = dose: 100.0 mg/kg/injection, schedule: Q04DX003 (ip), vehicle: saline
[12] = dose: 200.0 mg/kg/injection, schedule: Q04DX003 (ip), vehicle: saline
[13] = dose: 400.0 mg/kg/injection, schedule: Q04DX003 (ip), vehicle: saline
[14] = dose: 200.0 mg/kg/injection, schedule: Q01DX001 (ip), vehicle: carboxymethylcellulose (CMC)
[15] = dose: 75.0 mg/kg/injection, schedule: Q01DX001 (ip), vehicle: saline
[16] = dose: 100.0 mg/kg/injection, schedule: Q01DX001 (ip), vehicle: saline
[17] = dose: 200.0 mg/kg/injection, schedule: Q01DX001 (ip), vehicle: saline
[18] = dose: 400.0 mg/kg/injection, schedule: Q01DX001 (ip), vehicle: saline
[19] = dose: 100.0 mg/kg/injection, schedule: Q01DX009 (ip), vehicle: saline
[20] = dose: 200.0 mg/kg/injection, schedule: Q01DX009 (ip), vehicle: saline
[21] = dose: 400.0 mg/kg/injection, schedule: Q01DX009 (ip), vehicle: Klucel (hydroxypropylcellulose) (HPC)
[22] = dose: 25.0 mg/kg/injection, schedule: Q01DX009 (ip), vehicle: saline
[23] = dose: 50.0 mg/kg/injection, schedule: Q01DX009 (ip), vehicle: saline

Measured: T/C

N#CC1(C#N)C2C=CC(C3CCC=C32)C1(C#N)C#N (centres undefined)
inactive: dose: 12.5 mg/kg/injection, schedule: Q01DX009 (ip), vehicle: saline with Tween-80 109 % of control | [1] 96 % of control | [2] 104 % of control | [3] 111 % of control | [4] 95 % of control | [5] 93 % of control

CCCCC(/C=C1/CCCCC1=O)CC (centres undefined)
inactive: [6] 97 % of control | [7] 92 % of control | [8] 97 % of control | [9] 103 % of control | [10] 97 % of control

O=[N+]([O-])c1ccc(N=Nc2c(Cl)cc(O)cc2Cl)cc1
inactive: [1] 96 % of control | [3] 89 % of control | dose: 100.0 mg/kg/injection, schedule: Q01DX009 (ip), vehicle: saline with Tween-80 89 % of control

Cc1ccc(NP(Br)(c2ccccc2)(c2ccccc2)c2ccccc2)cc1
inactive: dose: 75.0 mg/kg/injection, schedule: Q01DX001 (ip), vehicle: acetone 95 % of control

CC(=O)SCC(C)CCl (centres undefined)
inactive: [11] 102 % of control | [12] 107 % of control | [13] 104 % of control

Nc1nc(N)nc(CCCCc2nc(N)nc(N)n2)n1
inactive: [14] 90 % of control

C=C(Br)CNC(=O)OC
inactive: [2] 100 % of control | [4] 105 % of control | [5] 121 % of control

Cc1ccc2c(C)nc(N=C(N)N)nc2c1
inactive: dose: 18.8 mg/kg/injection, schedule: Q04DX003 (ip), vehicle: saline 96 % of control | dose: 37.5 mg/kg/injection, schedule: Q04DX003 (ip), vehicle: saline 100 % of control | [15] 103 % of control | dose: 75.0 mg/kg/injection, schedule: Q04DX003 (ip), vehicle: saline 97 % of control

CC1C[N+](C)(C)N=C1[O-] (centres undefined)
inactive: [16] 104 % of control | [17] 98 % of control | [18] 95 % of control

c1ccc(-c2oc(-c3ccccc3)c(-c3ccccc3)c2-c2ccccc2)cc1
inactive: [5] 93 % of control | dose: 400.0 mg/kg/injection, schedule: Q04DX003 (ip), vehicle: saline with Tween-80 93 % of control

COc1ccc(C(=O)N/N=C/c2ccco2)cc1
inactive: [6] 100 % of control | [8] 86 % of control

COc1ccc(C(=O)CCC(=O)O)c(C)c1
inactive: [19] 97 % of control | [20] 101 % of control | dose: 400.0 mg/kg/injection, schedule: Q01DX009 (ip), vehicle: saline 105 % of control

COc1cc(C2N(c3ccccc3)CCN2c2ccccc2)cc(OC)c1OC
inactive: [6] 97 % of control | [7] 90 % of control | [9] 93 % of control | [21] 94 % of control | [10] 95 % of control

OC1COC(c2ccco2)OC1 (centres undefined) (tested in a mixture with another compound)
inactive: [6] 94 % of control | [7] 102 % of control | [8] 105 % of control | [9] 101 % of control | [10] 102 % of control

CSc1ccc(NC(=O)Nc2nccs2)cc1
inactive: dose: 200.0 mg/kg/injection, schedule: Q04DX003 (ip), vehicle: saline sonified 87 % of control | dose: 400.0 mg/kg/injection, schedule: Q04DX003 (ip), vehicle: saline sonified 92 % of control

Cn1c(N)c(N=Nc2ccc(S(=O)(=O)Nc3nccs3)cc2)c(=O)n(C)c1=O
inactive: dose: 100.0 mg/kg/injection, schedule: Q01DX001 (ip), vehicle: carboxymethylcellulose (CMC) 102 % of control | [14] 96 % of control | dose: 400.0 mg/kg/injection, schedule: Q01DX001 (ip), vehicle: carboxymethylcellulose (CMC) 90 % of control

CC(=O)Oc1ccc(C[n+]2ccccc2)cc1
inactive: dose: 12.5 mg/kg/injection, schedule: Q01DX009 (ip), vehicle: saline 94 % of control | [22] 86 % of control | dose: 25.0 mg/kg/injection, schedule: Q04DX003 (ip), vehicle: saline 106 % of control | dose: 50.0 mg/kg/injection, schedule: Q04DX003 (ip), vehicle: saline 100 % of control

COC1CCC2CC3C4Cc5cn[nH]c5C5OC1C2C54CCN3C (centres undefined)
inactive: [11] 95 % of control | [12] 86 % of control

CC1=CC2C(O)(CC(CO)=CC3C4C(C)(C)C4(O)C(O)C(C)C32O)C1=O (centres undefined)
inactive: dose: 50.0 mg/kg/injection, schedule: Q01DX001 (ip), vehicle: saline sonified 112 % of control | dose: 100.0 mg/kg/injection, schedule: Q01DX001 (ip), vehicle: saline sonified 101 % of control | dose: 200.0 mg/kg/injection, schedule: Q01DX001 (ip), vehicle: saline sonified 91 % of control

COc1cc2c(cc1OC)C(CCN1C(=O)c3ccccc3C1=O)=NCC2
inactive: [22] 97 % of control | [23] 101 % of control | [11] 97 % of control

COC(=O)c1ccccc1NC(=O)Nc1ccc(SC)cc1
inactive: [6] 89 % of control | [8] 92 % of control | [21] 95 % of control

NC(N)=NNC(=S)S
inactive: [1] 102 % of control | [3] 110 % of control | [4] 95 % of control | [5] 92 % of control

CC1(C)OC2OC(CO)C(O)C2O1 (centres undefined)
inactive: [16] 101 % of control | [17] 97 % of control | [18] 98 % of control

NCCCOc1ccc([N+](=O)[O-])cc1Cl
inactive: [23] 106 % of control | [15] 98 % of control | [19] 110 % of control | [11] 111 % of control | dose: 150.0 mg/kg/injection, schedule: Q01DX001 (ip), vehicle: saline 98 % of control | [20] 101 % of control | [12] 101 % of control

O=c1[nH]nc(SCc2ccccc2)c(=O)[nH]1
inactive: [16] 108 % of control | [17] 92 % of control | [18] 109 % of control

CC(=O)OC12C=C(C)C(C3C(=O)OC(=O)C31)C(C)(C)C2 (centres undefined)
inactive: [23] 97 % of control | [19] 92 % of control | [20] 102 % of control

FC(F)(F)c1cccc(NC(=S)N2CCOCC2)c1
inactive: [6] 98 % of control | [8] 104 % of control | [21] 96 % of control

O=C(O)CNc1cc(S(=O)(=O)O)cc2cc(S(=O)(=O)O)c(N=Nc3ccc(S(=O)(=O)O)c4ccccc34)c(O)c12
inactive: [16] 98 % of control | [11] 106 % of control | [17] 95 % of control | [12] 90 % of control | [18] 98 % of control | [13] 95 % of control

CCOP(=S)(S)OCC.[Pd]
inactive: dose: 12.5 mg/kg/injection, schedule: Q01DX009 (ip), vehicle: other 95 % of control | dose: 25.0 mg/kg/injection, schedule: Q01DX009 (ip), vehicle: other 95 % of control | dose: 50.0 mg/kg/injection, schedule: Q01DX001 (ip), vehicle: saline 96 % of control | [16] 100 % of control | [17] 100 % of control | [18] 100 % of control

Cc1nc(C#N)c(C#N)nc1-c1ccccc1
inactive: dose: 100.0 mg/kg/injection, schedule: Q04DX002 (ip), vehicle: saline with Tween-80 95 % of control | dose: 200.0 mg/kg/injection, schedule: Q04DX002 (ip), vehicle: saline with Tween-80 95 % of control | dose: 400.0 mg/kg/injection, schedule: Q04DX002 (ip), vehicle: saline with Tween-80 95 % of control
